The conditions of data set [1]: 21-membered ring.
The target in a further data set is T1, Keap1-Nrf2 (Homo sapiens, UniProt Q14145).
T1 construct: purchased Sino Biological 11981-H20B
The experiment in a line: Keap1-Nrf2 Binding Inhibitory Activity Assay (fluorescence polarization, Keap1_FL + FITC-Nrf2 peptide). Particulars: Keap1-FL, 60 min room temperature. The procedure:
Example 2.1 Keap1-Nrf2 Binding Inhibitory Activity Assay
• PerkinElmer EnVision 2105 Multilabel Reader • PerkinElmer FITC FP dual emission Label 2100-8060 • LABCYTE Echo 650 • Corning 384-well microplate #4514 • Keap1_FL, Sino Biological, catalog 11981-H20B • FITC-Nrf2 peptide, GL Biochem, Lot No: p210427-XQ892761
• a) Reference titration • 1. Keap1-Nrf2 Assay Buffer was prepared: 10 mM Tris-HCl pH 7.4, 150 mM NaCl, 50 mM EDTA, 0.05% Tween20, 0.1 mg/ml BSA (freshly add before use). • 2. 2.04× Tracer working solution was prepared: 2.04 nM FITC-Nrf2 peptide in Assay Buffer from 1 μM DMSO stock. • 3. 2× Protein working solution was prepared: 25 nM Keap1-FL in Assay Buffer. • 4. 100× compound working solutions with DMSO were prepared. Starting from 100 μM, serial 3-fold dilutions (10 points) were made by the Echo on the 384-well LDV microplate, then 200 nL of compounds, in duplicated wells, were transferred to a Corning 4514 plate. • 5. 9.8 μL per well of the Tracer working solution was added into the Corning 4514 plate. • 6. 10 μL per well of the Protein working solution was added into the Corning 4514 plate, except for the first two columns where Dilution Buffer were added to serve as “positive control”. • 7. The plate was incubated at room temperature for 60 min. • b) Read data on an EnVision with the following setting: Excitation Light (%): 84; Measurement Height: 9.4; G-Factor: 1; Detector Gain 1:220; Detector Gain 2: 220; Flash Number: 50.
All the Test Compounds were considered as having Keap1-Nrf2 binding inhibitory activity.
In general terms: Polarisation of emitted light reports the rotation of a fluorescent probe.

Another data set deals with Nrf2. The experiment in a line: Nrf2 Cellular Assay (pGL4.37[luc2P/ARE/Hygro] luciferase reporter in HepG2 cells). Format: cell-based. Particulars: Homo sapiens, HepG2, 6 h, ARE luciferase, 6 hours compound treatment. On the procedure: Example 2.2 Nrf2 Cellular Assay
• 1. pGL4.37[luc2P/ARE/Hygro] vector was diluted to 25 ng/μL in Opti-MEM. • 2. Lipofectamine 3000 was added to a 2:1 lipid:DNA. The mixture was mixed by pipetting and incubate at room temperature for 15 minutes. • 3. HepG2 cells were cultured in complete medium (DMEM+10% FBS). • 4. Trypsin was added to the cells, which were filtered via a cell strainer to remove cell cluster, the cells were then quantified and diluted to 2×10^5 cells/ml in complete medium. • 5. The cells and plasmid were mixed, seeded to 384-well plate 50 μL per well (50 ng DNA/well) and incubated for 24 hours in a 37° C., 5% CO2 incubator.
• 1. Medium was removed from cells and replaced with 36 μL of DMEM+10% FBS per well. • 2. Incubated overnight in a 37° C., 5% CO2 incubator.
• 1. Test compound was serially diluted tin DMSO, and further diluted with DMEM (contains 10% FBS) to 10× final concentration. • 2. 4 μL of the 10× compound was added to each well, the plate was shaken for 10 sec on a plate shaker and incubated for 6 hours in a 37° C., 5% CO2 incubator.
• 1. Plates were removed from the 37° C., 5% CO2 incubator and allowed to cool to room temperature for approximately 15 minutes. • 2. 40 μL of the Glo Luciferase Assay System detection reagents were added, and the plate was shaken for 3 min and luminescence was measured.
(A reporter such as luciferase makes a cellular process visible.)

Where two headings read alike, the source gives them in different places.

In data set [1] (from CCOC(=O)CC(c1cc(C)c2c(c1)CNCC2)c1ccc2c(nnn2CCCOCc2ccc(C(=O)O)cc2)c1C, amide bond, HATU/DIEA, DMF, 131.5 mM, 20.0 °C, 2.0 h), `CCOC(=O)CC1c2cc(C)c3c(c2)CN(CC3)C(=O)c2ccc(cc2)COCCCn2nnc3c(C)c1ccc32` (stereo not drawn) returned a ring closure, isolated yield of 77.9%.
The molecule `CCOC(=O)CC1c2ccc3c(c2)CN(CC3)S(=O)(=O)c2ccc(cc2)OCC=CCn2nnc3c(C)c1ccc32` (stereo not drawn) came in with a ring closure, isolated yield in data set [1] (from C=CCOc1ccc(S(=O)(=O)N2CCc3ccc(C(CC(=O)OCC)c4ccc5c(nnn5C/C=C/C)c4C)cc3C2)cc1, rcm bond, Grubbs II, DCM, 40.0 mM, 25.0 °C, 19.0 h) of 12.9%.
In data set [1] (from C=CCCCn1nnc2c(Cl)c(C(CC(=O)OCc3ccccc3)c3ccc4c(c3)CN(C(=O)N3CCC(C=C)CC3)CC4)ccc21, rcm bond, Grubbs II, DCM, 53.3 mM, 19.0 h), `O=C(CC1c2ccc3c(c2)CN(CC3)C(=O)N2CCC(C=CCCCn3nnc4c(Cl)c1ccc43)CC2)OCc1ccccc1` (stereo not drawn) had a ring closure, isolated yield of 13.3%.
For orientation: IC50 means the concentration that inhibits the measured activity by half. Broadly, the EC50 is the midpoint of the concentration-response curve. Regarding `Cc1c2ccc3c1nnn3CCOCCOc1ccc(cc1)S(=O)(=O)N1CCc3ccc(cc3C1)C2CC(=O)O` (stereo not drawn) [Compound 1, tert-butyl 2-(1^4-methyl-4,4-dioxido-3^1,3^2,3^3,3^4-tetrahydro-1^1H-6,9-dioxa-4-thia-3(7,2)-isoquinolina-1(5,1)-benzo[d][1,2,3]triazola-5(1,4)-benzenacycloundecaphane-2-yl)acetic acid], the IC50 at Keap1-Nrf2 is 100 to 1000 nM. The EC50 with Nrf2 is > 30 µM.
In the same order, the values of `Cc1c2ccc3c1nnn3CCCCCN1CCC(CC1)C(=O)N1CCc3ccc(cc3C1)C2CC(=O)O` (stereo not drawn) [Compound 2, 2-(carboxymethyl)-1^4-methyl-4-oxo-3^1,3^2,3^3,3^4-tetrahydro-1^1H-3(7,2)-isoquinolina-1(5,1)-benzo[d][1,2,3]triazola-5(4,1)-piperidin-1-iumacyclodecaphan-5^1-ium chloride] are 1000 to 10000 nM and > 30 µM.
Turning to `Cc1c2ccc3c1nnn3CCOCCN1CCC(CC1)C(=O)N1CCc3ccc(cc3C1)C2CC(=O)O` (stereo not drawn) [Compound 3, 2-(carboxymethyl)-1^4-methyl-4-oxo-3^1,3^2,3^3,3^4-tetrahydro-1^1H-8-oxa-3(7,2)-isoquinolina-1(5,1)-benzo[d][1,2,3]triazola-5(4,1)-piperidin-1-iumacyclodecaphan-5^1-ium chloride], at Keap1-Nrf2, the IC50 fell in the range of 1000 to 10000 nM. The EC50 in the data set on Nrf2 was > 30 µM.
On to `Cc1cc2cc3c1CCN(C3)C(=O)c1ccc(cc1)COCCCn1nnc3c(C)c(ccc31)C2CC(=O)O` (stereo not drawn) [Compound 4, 2-(1^4,3^5-dimethyl-4-oxo-3^1,3^2,3^3,3^4-tetrahydro-1^1H-7-oxa-3(7,2)-isoquinolina-1(5,1)-benzo[d][1,2,3]triazola-5(1,4)-benzenacyclodecaphane-2-yl)acetic acid], for which the IC50 at Keap1-Nrf2 is ≤ 100 nM. Further, in the data set with Nrf2, the EC50 is ≤ 10 µM.
On the same counts, the results for `Cc1c2ccc3c1nnn3CCCCCN1CCN(CC1)C(=O)N1CCc3ccc(cc3C1)C2CC(=O)O` (stereo not drawn) [Compound 5, 2-(carboxymethyl)-1^4-methyl-4-oxo-3^1,3^2,3^3,3^4-tetrahydro-1^1H-3(7,2)-isoquinolina-1(5,1)-benzo[d][1,2,3]triazola-5(4,1)-piperazin-1-iumacyclodecaphan-5^1-ium chloride] are 100 to 1000 nM and > 30 µM.
On the same counts, the results for `Cc1c2ccc3c1nnn3CCCOCc1ccc(cc1)C(=O)N(C)Cc1cccc(c1)C2CC(=O)O` (stereo not drawn) [Compound 7, 2-(1^4,5-dimethyl-6-oxo-1^1H-9-oxa-5-aza-1(5,1)-benzo[d][1,2,3]triazola-3(1,3), 7(1,4)-dibenzenacyclododecaphane-2-yl)acetic acid] are ≤ 100 nM and 10 to 30 µM.
Regarding `Cc1c2ccc3c1nnn3CCOCCN1CCN(CC1)C(=O)c1ccc3ccc(cc3c1)C2CC(=O)O` (stereo not drawn) [Compound 8, 2-(1^4-methyl-4-oxo-1^1H-8-oxa-1(5,1)-benzo[d][1,2,3]triazola-5(1,4)-piperazina-3(2,7)-naphthalenacyclodecaphane-2-yl)acetic acid], the IC50 at Keap1-Nrf2 fell in the range of 1000 to 10000 nM. For the same molecule, in the data set with Nrf2, the EC50 is > 30 µM.
For `Cc1c2ccc3c1nnn3CCCCOC1CCN(CC1)C(=O)N1CCc3ccc(cc3C1)C2CC(=O)O` (stereo not drawn) [Compound 10, 2-(1^4-methyl-4-oxo-3^1,3^2,3^3,3^4-tetrahydro-1^1H-6-oxa-3(7,2)-isoquinolina-1(5,1)-benzo[d][1,2,3]triazola-5(1,4)-piperidinacyclodecaphane-2-yl)acetic acid], the IC50 on Keap1-Nrf2 was ≤ 100 nM. Further, the EC50 in the data set with Nrf2 was ≤ 10 µM.
`Cc1c2ccc3c1nnn3C/C=C\COC1CCN(CC1)C(=O)N1CCc3ccc(cc3C1)C2CC(=O)O` (stereo not drawn) [Compound 11, (Z)-2-(1^4-methyl-4-oxo-3^1,3^2,3^3,3^4-tetrahydro-1^1H-6-oxa-3(7,2)-isoquinolina-1(5,1)-benzo[d][1,2,3]triazola-5(1,4)-piperidinacyclodecaphan-8-en-2-yl)acetic acid]: the IC50 at Keap1-Nrf2 was ≤ 100 nM. For the same molecule, in the data set on Nrf2, the half-maximal effective concentration (EC50) is ≤ 10 µM.
Consider `Cc1c2ccc3c1nnn3CCCOCC1CCN(CC1)C(=O)N1CCc3ccc(cc3C1)C2CC(=O)O` (stereo not drawn) [Compound 12, 2-(1^4-methyl-4-oxo-3^1,3^2,3^3,3^4-tetrahydro-1^1H-7-oxa-3(7,2)-isoquinolina-1(5,1)-benzo[d][1,2,3]triazola-5(1,4)-piperidinacyclodecaphane-2-yl)acetic acid], for which the IC50 at Keap1-Nrf2 is ≤ 100 nM. The EC50 in the data set on Nrf2 was ≤ 10 µM.
In the case of `Cc1c2ccc3c1nnn3CCCCCC1CCN(CC1)C(=O)N1CCc3ccc(cc3C1)C2CC(=O)O` (stereo not drawn) [Compound 14, 2-(1^4-methyl-4-oxo-3^1,3^2,3^3,3^4-tetrahydro-1^1H-3(7,2)-isoquinolina-1(5,1)-benzo[d][1,2,3]triazola-5(1,4)-piperidinacyclodecaphane-2-yl)acetic acid], the half-maximal inhibitory concentration (IC50) on Keap1-Nrf2 is ≤ 100 nM. Further, in the data set with Nrf2, the EC50 was ≤ 10 µM.
In the same order, the values of `O=C(O)CC1c2ccc3c(c2)CN(CC3)C(=O)N2CCC(CCCCCn3nnc4c(Cl)c1ccc43)CC2` (stereo not drawn) [Compound 30, 2-(1^4-chloro-4-oxo-3^1,3^2,3^3,3^4-tetrahydro-1^1H-3(7,2)-isoquinolina-1(5,1)-benzo[d][1,2,3]triazola-5(1,4)-piperidinacyclodecaphane-2-yl)acetic acid] are ≤ 100 nM and ≤ 10 µM.
`Cc1c2ccc3c1nnn3CCCCC1CCC(CC1)C(=O)N1CCc3ccc(cc3C1)C2CC(=O)O` (stereo not drawn) [Compound 34]: at Keap1-Nrf2, the 50% inhibitory concentration (IC50) is ≤ 100 nM. Also, in the data set with Nrf2, the EC50 is ≤ 10 µM.
For `Cc1c2ccc3c1nnn3CCCCCC1CCC(CC1)C(=O)N1CCc3ccc(cc3C1)C2CC(=O)O` (stereo not drawn) [Compound 35], the IC50 at Keap1-Nrf2 was ≤ 100 nM. Further, the EC50 with Nrf2 was ≤ 10 µM.
In the same order, the values of `Cc1c2ccc3c1nnn3CCCCCC1CCC(CC1)C(=O)N(C)Cc1cccc(c1)C2CC(=O)O` (stereo not drawn) [Compound 37] are 100 to 1000 nM and ≤ 10 µM.
In the same order, the values of `Cc1c2ccc3c1nnn3CCCCCCCCN(C)C(=O)N1CCc3ccc(cc3C1)C2CC(=O)O` (stereo not drawn) [Compound 40] are ≤ 100 nM and 10 to 30 µM.
On the same counts, the results for `O=C(O)CC1c2ccc3c(c2)CN(CC3)C(=O)C2CCC(CCCCCn3nnc4cc1cnc43)CC2` (stereo not drawn) [Compound 55, 2-(4-oxo-31,32,33,34-tetrahydro-13H-3(7,2)-isoquinolina-1(6,3)-[1,2,3]triazolo[4,5-b]pyridina-5(1,4)-cyclohexanacyclodecaphane-2-yl)acetic acid] are ≤ 100 nM and ≤ 10 µM.
For the molecule `O=C(O)CC1c2ccc3c(c2)CN(CC3)C(=O)C2CCC(CCCCn3nnc4cc1cnc43)CC2` (stereo not drawn) [Compound 56, 2-(4-oxo-31,32,33,34-tetrahydro-13H-3(7,2)-isoquinolina-1(6,3)-[1,2,3]triazolo[4,5-b]pyridina-5(1,4)-cyclohexanacyclononaphane-2-yl)acetic acid], the half-maximal inhibitory concentration (IC50) at Keap1-Nrf2 was ≤ 100 nM. The EC50 in the data set with Nrf2 fell in the range of 10 to 30 µM.

Values taken from patent publication US20260234163A1, “NOVEL COMPOUNDS AND USES THEREOF” (ACELINK THERAPEUTICS, INC., priority 2023, published 2026).
